According to US7601838B2, “2-Alkyl/aryl sulphonyl-1,2,3,4-tetrahydro-9H-pyrido (3,4-b) indole-3-carboxylic acid esters/amides useful as antithrombotic agents” (Council of Scientific and Industrial Research, priority 2004, dated 2009):

These molecules were tested on stasis induced thrombosis in LPS treated rabbits (assay: Rabbit venous thrombosis model (stasis induced thrombosis in LPS treated rabbits)). Conditions: evaluated at 10 μM/Kg and 30 μM/kg dose.
Type: in vivo, New Zealand white strain rabbits
Protocol: [formula] 1.4 Evaluation of coagulation parameters: Blood was collected by cardiac puncture from ether-anaesthetized rat using a syringe containing 3.2% tri-sodium citrate (9:1, v/v). Plasma was obtained by centrifugation of citrated blood at 2500×g for 15 min at 20° C. Stock solutions of the test compounds were prepared freshly in DMSO and were diluted in DMSO. Thrombin time (TT), prothrombin time (PT) and activated partial thromboplastin time (aPTT) were evaluated according to manufacturer's instructions supplied with kits (Stago, France) and measured by Coagulometer (Stago, France)^(4). In each set of experiment effect of DMSO on these parameters was also assessed and was used to calculate change in TT, PT or aPTT. 1.5 Rabbit venous thrombosis model: Experiments were performed on New Zealand white strain rabbits (2-3 kg) either sex. Escherichia coli LPS strain 1055:B5 (Sigma Chemicals, USA) was injected intravenously via ear vein (1 μg/kg)^(5,6). Jugular veins on both sides were exposed and dissected free from surrounding tissue. Two loose surer were placed 1.5 cm apart and all collateral veins were ligated. Four hours after E. coli endotoxin injection (animal is watched for any signs of hypersensitivity reaction during this period), stasis was established and maintained for 45 min by tightening the two sutures. Ligated segments were removed and opened longitudinally and the thrombus was carefully removed and weighed. Heparin sodium (Beparine from beef intestinal mucosa ≧140 USP units/mg; Biological E. Limited, India) was given in doses of (0.5, 0.25, 0.1 mg/kg i.v., via ear vein) 5 min before stasis. 1.6 Effect of compound (i) on human platelet aggregation in vitro: Platelet aggregation study was done on human platelets following isolation of PRP from the human blood as described above (1.3). Aggregation was induced by collagen (10 μg/ml, 5 μg/ml), ADP (10 μM) and thrombin (0.5 U/ml). 2. Results: Effect of test compounds is indicated in the following table (1) against collagen and epinephrine induced thrombosis in mice, which is a primary screening model to detect antithrombotic efficacy of the test agents. At the same dose these compounds were also evaluated for their effect on the bleeding time in mouse (Table 1).
Effect on venous thrombosis model in rabbit: The selected compounds were evaluated at 10 μM/Kg and 30 μM/kg dose for their efficacy against stasis induced thrombosis in LPS treated rabbits. […] Ex vivo effect of selective compounds on rat platelet aggregation: Blood was collected in sodium citrate to obtain PRP and evaluate the ex vivo effect of selective compounds ((i), (ii), (iii) at 30 μM/kg administered by the ip route) against ADP, collagen, phorbol myristate ester (PMA) calcium ionophore (A23187), or thrombin induced aggregation. It was observed that all these compounds were consistent against collagen-induced platelet aggregation (Table 3). (iii) inhibited ADP (10 μM), collagen (10 μg/ml), PMA (1.5 μM), and thrombin (0.64 U/ml) induced platelet aggregation while no inhibition was found against calcium ionophore A23187 (2.5 μg/ml) induced platelet aggregation. […] Effect on clotting parameters: The selected compounds were also tested in vitro for their effect on thrombin time (TT), prothrombin time (PT) and activated partial thromboplastin time (aPTT) at 100 μg/ml and 200 μg/ml in vitro (Table 4). The test compounds at 100 μg/ml had no significant effect of on these parameters. Some effect was though seen on PT at 200 μg/ml concentration, but the concentration seems to be quite high.
Values are Mean±; Compound (i); n=2, Compound (ii); n=4, Compound (iii), n=4 [n is no. of observations in 2 or more animals at 10 μM/Kg or 30 μM/Kg p.o. administered 2 h prior to the stasis] or vehicle control [n=10 observations in five animals]. In heparin treated group n=6 observations for each dose in nine animals.
`COC(=O)C1Cc2c([nH]c3ccccc23)CN1S(=O)(=O)c1ccc(C)cc1` (racemic) [n, 2[4-methylbenzenesulfonyl]-1,2,3,4,-tetrahydro-9H-pyrido[3,4-b]indole-3-carboxylic acid ester] was tested, and the “inhibition of thrombus formation (in words)” value was “inhibited thrombus formations only at 30 μM/Kg”.

Each molecule was assayed on collagen and epinephrine induced thrombosis in mice (assay: Effect on mouse thrombosis: collagen and adrenaline induced pulmonary thromboembolism). Conditions: 30 μM/kg orally 60 min prior to collagen + adrenaline challenge.
Type: in vivo
Protocol: Pulmonary thromboembolism was induced by following a method of Diminno and Silver^(1). Test compounds (30 μM/Kg) or vehicle were administered orally 60 min prior to the thrombotic challenge. A mixture of collagen (150 μg/ml) and adrenaline (50 μg/mL) was administered by the rapid intravenous injection into the tail vein to induce hind limb paralysis or death. A group of 10 animals were used to evaluate the effect of test compound, while 5 mice were used to assess effect of a standard drug, aspirin and a group of vehicle treated (n=5) mice was also used each experiment.
% Protection was expressed as: […]
Ptest is the number of animals paralyzed/dead in the test compound-treated group, and Pcontrol is the number of animals paralyzed/dead in vehicle treated group.
With `COC(=O)C1Cc2c([nH]c3ccccc23)CN1S(=O)(=O)c1c(C)cc(C)cc1C` (racemic) [b, 2[2,4,6, trimethylbenzenesulfonyl]-1,2,3,4,-tetrahydro-9H-pyrido[3,4-b]indole-3-carboxylic acid ester] the “Antithrombotic activity (AT) (% protection)” value was 20%. With `COC(=O)C1Cc2c([nH]c3ccccc23)CN1S(=O)(=O)c1ccccc1[N+](=O)[O-]` (racemic) [c, 2[2, nitrobenzenesulfonyl]-1,2,3,4,-tetrahydro-9H-pyrido[3,4-b]indole-3-carboxylic acid ester] the “Antithrombotic activity (AT) (% protection)” value was 0%. In the case of `COC(=O)C1Cc2c([nH]c3ccccc23)CN1S(=O)(=O)c1cccc2ccccc12` (racemic) [d, 2[1-naphthylsulfonyl]-1,2,3,4,-tetrahydro-9H-pyrido[3,4-b]indole-3-carboxylic acid ester], the “Antithrombotic activity (AT) (% protection)” value is reported as 20%. In the case of `COC(=O)C1Cc2c([nH]c3ccccc23)CN1S(=O)(=O)c1ccc(OC)cc1` (racemic) [e], the “Antithrombotic activity (AT) (% protection)” value is reported as 0%. In the case of `COC(=O)C1Cc2c([nH]c3ccccc23)CN1S(=O)(=O)c1cccc2cccnc12` (racemic) [f, 2[8-quinolinesulfonyl]-1,2,3,4,-tetrahydro-9H-pyrido[3,4-b]indole-3-carboxylic acid ester], the “Antithrombotic activity (AT) (% protection)” value is reported as 20%. For `COC(=O)C1Cc2c([nH]c3ccccc23)CN1S(=O)(=O)c1cccc2c(N(C)C)cccc12` (racemic) [g, 2-[dansylsulfonyl]-1,2,3,4,-tetrahydro-9H-pyrido[3,4-b]indole-3-carboxylic acid ester], the “Antithrombotic activity (AT) (% protection)” value was 20%. With `COC(=O)C1Cc2c([nH]c3ccccc23)CN1S(=O)(=O)c1c(C(C)C)cc(C(C)C)cc1C(C)C` (racemic) [h, 2[2,4,6 triisopropylbenzenesulfonyl]-1,2,3,4,-tetrahydro-9H-pyrido[3,4-b]indole-3-carboxylic acid ester] the “Antithrombotic activity (AT) (% protection)” value was 0%. `COC(=O)C1Cc2c([nH]c3ccccc23)CN1S(=O)(=O)c1ccc(F)cc1` (racemic) [i, 2[4-fluorobenzenesulfonyl]-1,2,3,4,-tetrahydro-9H-pyrido[3,4-b]indole-3-carboxylic acid ester] was tested, and the “Antithrombotic activity (AT) (% protection)” value was 0%. For `COC(=O)C1Cc2c([nH]c3ccccc23)CN1S(C)(=O)=O` (racemic) [k, 2[methylsulfonyl]-1,2,3,4,-tetrahydro-9H-pyrido[3,4-b]indole-3-carboxylic acid ester], the “Antithrombotic activity (AT) (% protection)” value was 50%. In the case of `NC(=O)C1Cc2c([nH]c3ccccc23)CN1S(=O)(=O)c1cc(Cl)ccc1Cl` (stereo not drawn) [o, 2[-2,5-dichlorobenzenesulfonyl]-1,2,3,4,-tetrahydro-9H-pyrido[3,4-b]indole-3-carboxylic acid amide], the “Antithrombotic activity (AT) (% protection)” value is reported as 40%. In the case of `NC(=O)C1Cc2c([nH]c3ccccc23)CN1S(=O)(=O)c1cccc2ccccc12` (stereo not drawn) [q, 2[-1-naphthylsulfonyl]-1,2,3,4,-tetrahydro-9H-pyrido[3,4-b]indole-3-carboxylic acid amide], the “Antithrombotic activity (AT) (% protection)” value is reported as 20%. With `NC(=O)C1Cc2c([nH]c3ccccc23)CN1S(=O)(=O)c1cccc2cccnc12` (stereo not drawn) [r, 2[8-quinolinesulfonyl]-1,2,3,4,-tetrahydro-9H-pyrido[3,4-b]indole-3-carboxylic acid amide] the “Antithrombotic activity (AT) (% protection)” value was 30%. For `NC(=O)C1Cc2c([nH]c3ccccc23)CN1S(=O)(=O)c1ccc(F)cc1` (stereo not drawn) [s, 2[-4-fluorobenzenesulfonyl]-1,2,3,4,-tetrahydro-9H-pyrido[3,4-b]indole-3-carboxylic acid amide], the “Antithrombotic activity (AT) (% protection)” value was 60%. For `CS(=O)(=O)N1Cc2[nH]c3ccccc3c2CC1C(N)=O` (stereo not drawn) [t, 2[methanesulfonyl]-1,2,3,4,-tetrahydro-9H-pyrido[3,4-b]indole-3-carboxylic acid amide], the “Antithrombotic activity (AT) (% protection)” value was 30%. `NC(=O)C1Cc2c([nH]c3ccccc23)CN1S(=O)(=O)c1cccc([N+](=O)[O-])c1` (stereo not drawn) [u] was tested, and the “Antithrombotic activity (AT) (% protection)” value was 45%. With `Cc1cc(C)c(S(=O)(=O)N2Cc3[nH]c4ccccc4c3CC2C(N)=O)c(C)c1` (stereo not drawn) [v] the “Antithrombotic activity (AT) (% protection)” value was 30%.

Same assay, conditions: 10 mg/kg (indomethacin)
With `COc1ccc2c(c1)c(CC(=O)O)c(C)n2C(=O)c1ccc(Cl)cc1` [Indomethacin, reference compound] the “Antithrombotic activity (AT) (% protection)” value was 55 ± 15 (n = 20) %.
